# System: NMNAT2
# Test: NMNAT2-Hibit nano-luciferase activity in stably transfected U87MG cells, various concentrations, 24 hours
# Format: cell-based
# Details: U87MG cells stably transfected with NMNAT2-Hibit luc plasmid
# Protocol: Selected compounds were tested in vitro. U87MG cells were stably transfected with NMNAT2-Hibit luc plasmid. Cells were treated with a test compound at various concentrations for 24 hours. Cells were then collected and assayed for nano-luciferase activity.
row,SMILES,E: compound efficacy for NMNAT2 activation (concentration giving >25% increase in NMNAT2 luciferase activity)
1,O=C(Nc1cccc(C(F)(F)F)c1)N1CCc2c(c3ccccc3n2Cc2cccc(F)c2)C1 [BC20362],++ (“++” >25% increase in NMNAT2 luciferase activity at >1 μM ≤25 μM.)
2,Cc1ccccc1CNC(=O)C1CCc2c(c3ccccc3n2Cc2cccc(F)c2)C1 (centres unmarked) [BC20223],+ (“+” >25% increase in NMNAT2 luciferase activity at >25 μM.)
3,Cc1ccc(Cn2cc(C3CCN(Cc4ccccc4F)C(=O)C3)c3ccccc32)cc1 (centres unmarked) [BC20230],++ (“++” >25% increase in NMNAT2 luciferase activity at >1 μM ≤25 μM.)
4,Cc1ccc(C)c(Cn2cc3c4c(cccc42)C(=O)NCC3)c1 [BC20313],+ (“+” >25% increase in NMNAT2 luciferase activity at >25 μM.)
5,Cc1ccc(CNC(=O)Cn2cc(C(=O)c3ccc(Cl)cc3)c3ccccc32)o1 [BC20176],++ (“++” >25% increase in NMNAT2 luciferase activity at >1 μM ≤25 μM.)
6,Cc1c(C)n(Cc2cccc(F)c2)c2ccc(C(=O)NCCc3ccccc3)cc12 [BC20248],++ (“++” >25% increase in NMNAT2 luciferase activity at >1 μM ≤25 μM.)
7,COc1cccc(CNC(=O)c2ccc3c(c2)c(C)c(C)n3Cc2cccc(F)c2)c1 [BC20116],++ (“++” >25% increase in NMNAT2 luciferase activity at >1 μM ≤25 μM.)
8,O=C(NCc1ccncc1)C1CCc2c(c3ccccc3n2Cc2cccc(F)c2)C1 (centres unmarked) [BC20228],++ (“++” >25% increase in NMNAT2 luciferase activity at >1 μM ≤25 μM.)
9,O=C(Cn1c2c(c3ccccc31)CN(C(=O)NCc1ccco1)CC2)NCc1ccco1 [BC20327],+ (“+” >25% increase in NMNAT2 luciferase activity at >25 μM.)
10,Cc1ccc(Cn2c3c(c4ccccc42)C(C(=O)NCc2ccccc2F)CCC3)cc1 (centres unmarked) [BC20385],++ (“++” >25% increase in NMNAT2 luciferase activity at >1 μM ≤25 μM.)
11,O=C1CC(c2cn(Cc3cccc(F)c3)c3ccccc23)CCN1Cc1ccccc1F (centres unmarked) [BC20318],+ (“+” >25% increase in NMNAT2 luciferase activity at >25 μM.)
12,Cc1ccc(C)c(Cn2c(C(F)F)c(CCC(=O)NCc3ccco3)c3ccccc32)c1 [BC20354],+ (“+” >25% increase in NMNAT2 luciferase activity at >25 μM.)
13,Cc1ccc(Cn2cc(C3CCN(Cc4ccccc4C)C(=O)C3)c3ccccc32)cc1 (centres unmarked) [BC20232],+ (“+” >25% increase in NMNAT2 luciferase activity at >25 μM.)
14,Cc1ccc(CNC(=O)CCCc2cn(Cc3ccccc3F)c3ccccc23)o1 [BC20122],++ (“++” >25% increase in NMNAT2 luciferase activity at >1 μM ≤25 μM.)
15,O=C1c2cccc3c2c(cn3Cc2cccc(F)c2)CCN1CCOc1ccc(F)cc1 [BC20342],+ (“+” >25% increase in NMNAT2 luciferase activity at >25 μM.)
16,O=C(NCCc1ccccc1)C1CCc2c(c3ccccc3n2Cc2ccncc2)C1 (centres unmarked) [BC20284],+ (“+” >25% increase in NMNAT2 luciferase activity at >25 μM.)
17,COc1ccc(CNC(=O)N2CCc3c(c4ccccc4n3Cc3ccncc3)C2)cc1 [BC20338],+ (“+” >25% increase in NMNAT2 luciferase activity at >25 μM.)
18,O=C(C1CCc2c(c3ccccc3n2Cc2cccc(F)c2)C1)N1CCc2occc2C1 (centres unmarked) [BC20260],++ (“++” >25% increase in NMNAT2 luciferase activity at >1 μM ≤25 μM.)
19,Fc1cccc(Cn2c3c(c4ccccc42)CNCC3)c1 [BC20333],++ (“++” >25% increase in NMNAT2 luciferase activity at >1 μM ≤25 μM.)
20,COc1ccccc1CNC(=O)CCCc1cn(Cc2ccccc2F)c2ccccc12 [BC20127],++ (“++” >25% increase in NMNAT2 luciferase activity at >1 μM ≤25 μM.)
21,O=C(Cn1cc(C(=O)c2ccc(Cl)cc2)c2ccccc21)NCc1ccccc1F [BC20177],+++ (“+++” >25% increase in NMNAT2 luciferase activity at ≤1 μM.)
22,Cc1cccc(Cn2cc(CCCC(=O)Nc3cccc(C)c3C)c3ccccc32)c1 [BC20175],++ (“++” >25% increase in NMNAT2 luciferase activity at >1 μM ≤25 μM.)

row,SMILES,E: compound efficacy for NMNAT2 activation (concentration giving >25% increase in NMNAT2 luciferase activity)
1,Cc1ccc(C)c(Cn2c(C(F)F)c(CCC(=O)NCc3cccnc3)c3ccccc32)c1 [BC20403],+ (“+” >25% increase in NMNAT2 luciferase activity at >25 μM.)
2,COc1ccccc1CNC(=O)CCc1c(C(F)F)n(Cc2cc(C)ccc2C)c2ccccc12 [BC20397],+ (“+” >25% increase in NMNAT2 luciferase activity at >25 μM.)
3,COc1ccccc1CNC(=O)[C@H]1C[C@@H]1c1c(C)n(Cc2cc(C)ccc2C)c2ccccc12 (racemic) [BC20324],+ (“+” >25% increase in NMNAT2 luciferase activity at >25 μM.)
4,O=C(CCCc1cn(Cc2ccccc2F)c2ccccc12)NCc1cccc(F)c1 [BC20124],++ (“++” >25% increase in NMNAT2 luciferase activity at >1 μM ≤25 μM.)
5,Cc1ccc(C)c(Cn2c(C(F)F)c(CCC(=O)NCc3ccccc3F)c3ccccc32)c1 [BC20393],++ (“++” >25% increase in NMNAT2 luciferase activity at >1 μM ≤25 μM.)
6,Cc1ccccc1Cn1cc(CCCC(=O)NCc2ccncc2)c2ccccc21 [BC20160],++ (“++” >25% increase in NMNAT2 luciferase activity at >1 μM ≤25 μM.)
7,COc1ccc(CCN2CCc3cn(Cc4cc(C)ccc4C)c4cccc(c34)C2=O)cc1 [BC20272],+ (“+” >25% increase in NMNAT2 luciferase activity at >25 μM.)
8,O=C(NCCc1ccccc1)C1CCCc2c1c1ccccc1n2Cc1cccc(F)c1 (centres unmarked) [BC20378],++ (“++” >25% increase in NMNAT2 luciferase activity at >1 μM ≤25 μM.)
9,Cc1ccccc1Cn1c(C)c(C)c2cc(C(=O)NCc3cccc(F)c3)ccc21 [BC20202],++ (“++” >25% increase in NMNAT2 luciferase activity at >1 μM ≤25 μM.)
10,O=C(Cn1c2c(c3ccccc31)CC(C(=O)NCc1ccco1)CC2)NCCc1ccccc1 (centres unmarked) [BC20291],++ (“++” >25% increase in NMNAT2 luciferase activity at >1 μM ≤25 μM.)
11,Cc1ccc(C)c(Cn2cc3c4c(cccc42)C(=O)N(CCc2ccccc2C)CC3)c1 [BC20273],+ (“+” >25% increase in NMNAT2 luciferase activity at >25 μM.)
12,COc1cccc(CNC(=O)C2CCc3c(c4ccccc4n3Cc3cc(C)ccc3C)C2)c1 (centres unmarked) [BC20188],++ (“++” >25% increase in NMNAT2 luciferase activity at >1 μM ≤25 μM.)
13,Cc1cccc(CN2CCC(c3cn(Cc4cccc(F)c4)c4ccccc34)CC2=O)c1 (centres unmarked) [BC20321],+ (“+” >25% increase in NMNAT2 luciferase activity at >25 μM.)
14,Cc1ccc(Cn2cc(C3CCN(Cc4cccc(C)c4)C(=O)C3)c3ccccc32)cc1 (centres unmarked) [BC20233],++ (“++” >25% increase in NMNAT2 luciferase activity at >1 μM ≤25 μM.)
15,Cc1cccc(CN2CCc3cn(Cc4cccc(F)c4)c4cccc(c34)C2=O)c1 [BC20276],+ (“+” >25% increase in NMNAT2 luciferase activity at >25 μM.)
16,Cc1ccc(C)c(Cn2cc([C@H]3C[C@@H]3C(=O)NCCc3ccccc3)c3ccccc32)c1 (racemic) [BC20360],++ (“++” >25% increase in NMNAT2 luciferase activity at >1 μM ≤25 μM.)
17,Cc1cccc(Cn2cc(CCCC(=O)NCc3ccc(C)o3)c3ccccc32)c1 [BC20164],+++ (“+++” >25% increase in NMNAT2 luciferase activity at ≤1 μM.)
18,O=C(NCC1CCCO1)C1CCCc2c1c1ccccc1n2Cc1cccc(F)c1 (centres unmarked) [BC20370],+ (“+” >25% increase in NMNAT2 luciferase activity at >25 μM.)
19,Cc1ccc(Cn2cc([C@H]3C[C@@H]3C(=O)NCc3ccc(C)o3)c3ccccc32)cc1 (racemic) [BC20294],+ (“+” >25% increase in NMNAT2 luciferase activity at >25 μM.)
20,COc1ccccc1CNC(=O)CCCc1cn(Cc2ccccc2C)c2ccccc12 [BC20155],++ (“++” >25% increase in NMNAT2 luciferase activity at >1 μM ≤25 μM.)
21,Cc1ccccc1Cn1cc(CCCC(=O)N(CCCN2CCOCC2)Cc2ccco2)c2ccccc21 [BC20157],+++ (“+++” >25% increase in NMNAT2 luciferase activity at ≤1 μM.)
22,COc1cccc(CNC(=O)CCCc2cn(Cc3cccc(C)c3)c3ccccc23)c1 [BC20169],++ (“++” >25% increase in NMNAT2 luciferase activity at >1 μM ≤25 μM.)
